Laboratory results published in patent publication US20190211002A1, “NOVEL TRIAZOLE DERIVATIVES” (Bayer CropScience Aktiengesellschaft, priority 2016, published 2019).

Experiments:
[1] = system: Sphaerotheca fuliginea; assay: Example H: in vivo preventive test on Sphaerotheca (cucumbers), comparison vs. WO-A 2010/146116; details: evaluated 7 days after inoculation
Description: To produce a suitable preparation of active compound, 1 part by weight of active compound is mixed with the stated amounts of solvent and emulsifier, and the concentrate is diluted with water to the desired concentration. To test for preventive activity, young plants are sprayed with the preparation of active compound at the stated rate of application. After the spray coating has dried on, the plants are inoculated with an aqueous spore suspension of Sphaerotheca fuliginea. The plants are then placed in a greenhouse at approximately 23° C. and a relative atmospheric humidity of approximately 70%. The test is evaluated 7 days after the inoculation.

[2] = LogP by HPLC on reversed phase columns (EEC directive 79/831 Annex V.A8); type: physicochemical; details: reversed phase HPLC column, method [a]: LC-UV, acidic range, 0.1% formic acid in water and acetonitrile as eluent
Description: Measurement of LogP values was performed according to EEC directive 79/831 Annex V.A8 by HPLC (High Performance Liquid Chromatography) on reversed phase columns with the following methods: • ^[a] […] Lambda-max-values were determined using UV-spectra from 200 nm to 400 nm and the peak values of the chromatographic signals.

[3] = system: Septoria tritici; assay: Example G: in vivo 5 days preventive Septoria tritici test (wheat), comparison vs. WO-A 2010/146116; details: inoculated 5 days after spraying, evaluated 21 days after inoculation
Description: • Solvent: 49 parts by weight of N,N-dimethylacetamide • Emulsifier: 1 part by weight of alkylaryl polyglycol ether To produce a suitable preparation of active compound, 1 part by weight of active compound or active compound combination is mixed with the stated amounts of solvent and emulsifier, and the concentrate is diluted with water to the desired concentration. To test for preventive and long-lasting activity, young plants are sprayed with a preparation of active compound or active compound combination at the stated rate of application. After the spray coating has been dried, the plants are placed in the greenhouse at a temperature of approximately 15° C. and a relative atmospheric humidity of approximately 80%. 5 days later the plants are sprayed with a spore suspension of Septoria tritici. The plants remain for 48 hours in an incubation cabinet at approximately 20° C. and a relative atmospheric humidity of approximately 100% and afterwards for 60 hours at approximately 15° C. in a translucent incubation cabinet at a relative atmospheric humidity of approximately 100%. Then the plants are placed in the greenhouse at a temperature of approximately 15° C. and a relative atmospheric humidity of approximately 80%. The test is evaluated 21 days after the inoculation.

[4] = system: Blumeria graminis f sp. hordei; assay: Example E: in vivo preventive Blumeria test (barley); details: 168 h, 500 ppm of active ingredient, preventive spray, evaluated 7 days after inoculation, read-out: efficacy
Description: • Solvent: 49 parts by weight of N,N-dimethylacetamide • Emulsifier: 1 part by weight of alkylaryl polyglycol ether To produce a suitable preparation of active compound, 1 part by weight of active compound or active compound combination was mixed with the stated amounts of solvent and emulsifier, and the concentrate was diluted with water to the desired concentration. To test for preventive activity, young plants were sprayed with the preparation of active compound or active compound combination at the stated rate of application. After the spray coating had been dried, the plants were dusted with spores of Blumeria graminis f sp. hordei. The plants were placed in the greenhouse at a temperature of approximately 18° C. and a relative atmospheric humidity of approximately 80% to promote the development of mildew pustules. The test was evaluated 7 days after the inoculation.

[5] = system: Puccinia recondita; assay: Example A: in vivo preventive test on Puccinia recondita (brown rust on wheat); details: 264 h, 500 ppm of active ingredient, preventive spray, evaluated 11 days after inoculation, read-out: efficacy
Description: (§1) The test is evaluated 11 days after the inoculation.

[6] = system: Uromyces appendiculatus; assay: Example D: in vivo preventive test on Uromyces appendiculatus (bean rust); details: 264 h, 500 ppm of active ingredient, preventive spray, evaluated 11 days after inoculation, read-out: efficacy
Description: as §1

[7] = system: Sphaerotheca fuliginea; assay: Example C: in vivo preventive test on Sphaerotheca fuliginea (powdery mildew on cucurbits); details: Podosphaera fuliginea, 360 h; 500 ppm of active ingredient; gherkin; preventive spray; evaluated 15 days after inoculation; read-out: efficacy
Description: The test is evaluated 15 days after the inoculation.

[8] = system: Sphaerotheca fuliginea; assay: Example F: in vivo preventive test on Sphaerotheca (cucumbers), comparison vs. known phenoxy-phenyl compounds; details: rate of application 10 ppm, evaluated 7 days after inoculation
Description: • Solvent: 24.5 parts by weight of acetone • 24.5 parts by weight of dimethylacetamide • Emulsifier: 1 part by weight of alkylaryl polyglycol ether
To produce a suitable preparation of active compound, 1 part by weight of active compound is mixed with the above stated amounts of solvent and emulsifier, and the concentrate is diluted with water to the desired concentration.
To test for preventive activity, young plants are sprayed with the preparation of active compound at the stated rate of application. After the spray coating has dried on, the plants are inoculated with an aqueous spore suspension of Sphaerotheca fuliginea. The plants are then placed in a greenhouse at approximately 23° C. and a relative atmospheric humidity of approximately 70%.
The test is evaluated 7 days after the inoculation.

Structure (SMILES) | Efficacy in % ([1]; rate of application 10 ppm) [%] | Efficacy in % ([1]; rate of application 100 ppm) [%] | chromatographic logP [2] | Efficacy in % ([3]; rate of application 100 ppm) [%] | Efficacy in % ([3]; rate of application 500 ppm) [%] | pest or weed control at 500 ppm [4] [%] | pest or weed control at 500 ppm [5] [%] | pest or weed control at 500 ppm [6] [%] | pest or weed control at 500 ppm [7] [%] | Efficacy in % [8] [%]
FC(F)(F)c1nc(Oc2ccc(Cl)cc2)ccc1C1(Cn2cncn2)OCCO1 [I.04, 6-(4-chlorophenoxy)-3-[2-(1,2,4-triazol-1-ylmethyl)-1,3-dioxolan-2-yl]-2-(trifluoromethyl)-pyridine] | 73 | 100 | 3.25 | 86 | 100 | 90 to 100 | 90 to 100 | 90 to 100 | 90 to 100 | 73
CC(O)(Cn1cncn1)c1ccc(Oc2ccc(Cl)cc2)cc1C(F)(F)F (centres unmarked) [reference compound] |  |  |  |  |  |  |  |  |  | 30
